Literature values, collected in patent US20150148304A1, “Novel Peptides and Analogs for Use in the Treatment of Macrophage Activation Syndrome” (Soligenix, Inc., priority 2013, published 2015).

Assays:
[1] = target: T1, TLR9 (Homo sapiens, UniProt Q9NR96); conditions: average; US 2011/0136845 Trawick et al.; cited from earlier work
T1 sequence (Q9NR96 26-1032): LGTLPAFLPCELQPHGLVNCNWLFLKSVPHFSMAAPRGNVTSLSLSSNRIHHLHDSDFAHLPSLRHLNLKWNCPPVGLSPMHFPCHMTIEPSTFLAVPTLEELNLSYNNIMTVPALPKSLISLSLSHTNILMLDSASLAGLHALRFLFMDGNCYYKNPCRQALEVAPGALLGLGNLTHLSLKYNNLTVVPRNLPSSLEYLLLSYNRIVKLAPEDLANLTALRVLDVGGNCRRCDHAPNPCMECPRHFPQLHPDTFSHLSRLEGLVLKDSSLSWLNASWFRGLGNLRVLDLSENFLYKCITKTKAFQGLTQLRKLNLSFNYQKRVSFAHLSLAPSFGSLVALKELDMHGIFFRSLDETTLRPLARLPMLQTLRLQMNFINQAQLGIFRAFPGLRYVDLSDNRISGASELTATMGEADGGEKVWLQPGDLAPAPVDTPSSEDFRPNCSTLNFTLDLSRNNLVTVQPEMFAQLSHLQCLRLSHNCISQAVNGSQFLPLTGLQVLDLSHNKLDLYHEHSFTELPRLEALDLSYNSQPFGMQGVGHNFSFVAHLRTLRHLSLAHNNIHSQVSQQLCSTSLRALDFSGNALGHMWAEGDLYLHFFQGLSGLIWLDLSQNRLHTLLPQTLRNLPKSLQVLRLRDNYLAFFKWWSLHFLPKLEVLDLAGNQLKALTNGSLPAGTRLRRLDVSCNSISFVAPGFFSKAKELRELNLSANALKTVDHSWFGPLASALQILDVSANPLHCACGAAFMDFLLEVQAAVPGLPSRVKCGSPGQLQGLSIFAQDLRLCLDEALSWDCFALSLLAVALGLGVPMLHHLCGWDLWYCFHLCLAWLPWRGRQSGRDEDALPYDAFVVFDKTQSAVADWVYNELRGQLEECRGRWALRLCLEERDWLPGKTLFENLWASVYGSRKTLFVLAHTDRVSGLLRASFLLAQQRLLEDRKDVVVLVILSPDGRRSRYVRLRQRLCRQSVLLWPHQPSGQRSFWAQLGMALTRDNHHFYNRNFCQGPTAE

[2] = system: macrophage activation syndrome; conditions: Ravelli et al. 2001, cited from earlier work
[3] = cited from earlier work

O=C1CC[C@]2(O)[C@@H]3Cc4ccc(O)c5c4[C@]2(CCN3CC2CC2)[C@@H]1O5 [(+)-Naltrexone]
inhibition of TLR9 [1]: 51%

cyclosporin A [CyA]
efficacy in severe or corticosteroid-resistant macrophage activation syndrome ([2]; patients, Mouy et al. 1996): effective
time to disappearance of fever and improvement of laboratory abnormalities ([2]; some patients): 12 to 24 h

O=C1CC[C@@]2(O)[C@H]3Cc4ccc(O)c5c4[C@@]2(CCN3CC2CC2)[C@H]1O5 [Naltrexone]
time of peak plasma levels after dosing ([3]; oral administration): one
urinary excretion of unchanged Naltrexone ([3]; share of the elimination pathway): less than 2%
